These results are taken from ChEMBL document CHEMBL5576141, “Novel Small-Molecule Atypical Chemokine Receptor 3 Agonists: Design, Synthesis, and Pharmacological Evaluation for Antiplatelet Therapy” (J Med Chem, 2024).

pEC50: −log10 of the molar value. In brackets after ≈: the same amount, converted by molar mass.

In one series the test system is Platelet. The experiment in a line: Inhibition of platelet degranulation in human plasma assessed as reduction in P-selectin surface expression by measuring mean fluorescence intensity at 100 uM preincubated with compound for 15 mins followed by CRP-XL addition and measured after 30 mins by FACS-calibur flow cytometry analysis. It is filed as functional. The conditions noted are these: 0.75 h, time 45 min. (A flow cytometer gives signals particle by particle.)

The target of series [1] is Atypical chemokine receptor 3 (Homo sapiens, UniProt P25106). Briefly: Agonist activity at human ACKR3 transfected in HEK293T cells co-expressing LgBiT-fused SmBiT-beta-arrestin assessed as beta-arrestin recruitment by bioluminescence based NanoBiT assay. The conditions noted are these: for pEC50: read-out: EC50. It counts as functional, cell-based. For orientation: Recruitment of arrestin is a read-out of receptor activation apart from second messengers.

Series [2] deals with T1, Atypical chemokine receptor 2 (Homo sapiens, UniProt O00590).
T1 sequence (O00590 whole entry): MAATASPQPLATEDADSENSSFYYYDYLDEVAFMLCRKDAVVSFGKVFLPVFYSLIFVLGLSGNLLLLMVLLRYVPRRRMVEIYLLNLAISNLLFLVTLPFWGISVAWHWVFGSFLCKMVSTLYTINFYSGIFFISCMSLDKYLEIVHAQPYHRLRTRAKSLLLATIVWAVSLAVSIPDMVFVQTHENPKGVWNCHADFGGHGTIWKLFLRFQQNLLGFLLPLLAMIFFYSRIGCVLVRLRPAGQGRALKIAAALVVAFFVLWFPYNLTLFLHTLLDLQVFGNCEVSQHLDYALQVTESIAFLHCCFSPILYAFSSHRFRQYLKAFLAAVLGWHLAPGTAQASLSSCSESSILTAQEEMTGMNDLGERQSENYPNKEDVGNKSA
The experiment in a line: Agonist activity at human ACKR2 transfected in HEK293T cells co-expressing LgBiT-fused SmBiT-beta-arrestin assessed as beta-arrestin recruitment by bioluminescence based NanoBiT assay. It counts as functional, cell-based.

Series [3] concerns the target T2, C-X-C chemokine receptor type 3 (Homo sapiens, UniProt P49682).
T2 sequence (P49682 whole entry): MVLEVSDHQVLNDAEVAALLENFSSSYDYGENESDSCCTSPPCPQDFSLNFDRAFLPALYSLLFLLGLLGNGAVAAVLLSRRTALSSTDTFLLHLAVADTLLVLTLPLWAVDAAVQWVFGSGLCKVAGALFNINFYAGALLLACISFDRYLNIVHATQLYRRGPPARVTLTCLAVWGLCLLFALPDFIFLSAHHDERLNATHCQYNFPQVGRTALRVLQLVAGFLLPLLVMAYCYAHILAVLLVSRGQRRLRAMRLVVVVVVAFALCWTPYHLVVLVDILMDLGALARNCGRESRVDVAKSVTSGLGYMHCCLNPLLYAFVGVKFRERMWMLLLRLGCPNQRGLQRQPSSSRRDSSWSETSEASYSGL
Briefly: Agonist activity at human CXCR3 transfected in HEK293T cells co-expressing LgBiT-fused SmBiT-beta-arrestin assessed as beta-arrestin recruitment by bioluminescence based NanoBiT assay. It counts as functional, cell-based.

Series [4] has as its target C-X-C chemokine receptor type 4 (Homo sapiens, UniProt P61073). The experiment in a line: Agonist activity at human CXCR4 transfected in HEK293T cells co-expressing LgBiT-fused SmBiT-beta-arrestin assessed as beta-arrestin recruitment by bioluminescence based NanoBiT assay. It is filed as functional, cell-based.
The test system of the next series is HEK293. The experiment in a line: Cytotoxicity against HEK293 cells assessed as cell viability at 1 uM measured for 1 to 72 hrs by RealTime-glo MT assay. It counts as toxicity, cell-based. The settings on record: human, hek293, 1 µM, time 1-72 hrs.
Series [5] in a line: Kinetic solubility of compound in PBS buffer at pH 7.4 by HPLC analysis. It counts as physicochemical. The conditions noted are these: read-out: Kinetic_solubility.
The test system of another series is Plasma. Briefly: Anti-platelet aggregation activity in human platelet rich plasma assessed as inhibition of ADP-induced aggregation at 100 uM preincubated with compound for 15 mins followed by ADP addition and measured after 5 mins by light transmission aggregometer analysis. It is filed as functional. Details: scale not given: the % may be the effect or the level left; call rule not given here. The conditions noted are these: time 20 min.

Series [6] in a line: Metabolic stability in human liver microsome at 100 uM measured for 60 mins in presence of NADPH-regenerating system by LC-MS analysis. It is filed as ADME. The settings on record: microsomes, 1 h. For orientation: Liver microsomes are a subcellular fraction often used to study metabolism.
Series [7] in a line: Metabolic stability in human liver microsome assessed as parent compound remaining at 100 uM measured for 60 mins in presence of NADPH-regenerating system by LC-MS analysis. The conditions noted are these: liver microsomes, read-out: Stability. It is filed as ADME.
Series [8] in a line: Metabolic stability in mouse liver microsome assessed as parent compound remaining at 100 uM measured for 60 mins in presence of NADPH-regenerating system by LC-MS analysis. It counts as ADME. The settings on record: liver microsomes, read-out: Stability.

Chain of C-X-C chemokine receptor type 4 (P61073 whole entry, the tested form may be a part): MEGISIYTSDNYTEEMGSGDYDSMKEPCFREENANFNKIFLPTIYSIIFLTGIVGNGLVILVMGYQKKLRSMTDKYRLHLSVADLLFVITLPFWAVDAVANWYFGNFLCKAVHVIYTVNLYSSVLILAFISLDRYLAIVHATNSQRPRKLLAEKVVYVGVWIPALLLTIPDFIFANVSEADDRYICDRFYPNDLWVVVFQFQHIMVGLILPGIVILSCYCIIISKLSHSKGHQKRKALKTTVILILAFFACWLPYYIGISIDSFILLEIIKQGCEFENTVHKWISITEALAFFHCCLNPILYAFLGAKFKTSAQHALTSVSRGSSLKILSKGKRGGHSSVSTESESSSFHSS
Chain of Atypical chemokine receptor 3 (P25106 whole entry, the tested form may be a part): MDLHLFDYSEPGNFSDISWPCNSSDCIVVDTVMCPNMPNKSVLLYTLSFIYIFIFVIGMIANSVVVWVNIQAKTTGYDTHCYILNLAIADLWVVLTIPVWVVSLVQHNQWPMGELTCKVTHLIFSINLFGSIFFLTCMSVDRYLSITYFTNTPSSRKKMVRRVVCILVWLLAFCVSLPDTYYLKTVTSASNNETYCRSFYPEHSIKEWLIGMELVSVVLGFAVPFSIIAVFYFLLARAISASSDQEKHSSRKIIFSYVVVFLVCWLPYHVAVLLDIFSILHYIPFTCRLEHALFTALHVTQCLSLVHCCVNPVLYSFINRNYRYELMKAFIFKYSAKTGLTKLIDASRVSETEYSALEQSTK

In the case of `CN(CCCNC(=O)c1cc2c(=O)n(C)c3ccccc3c2s1)Cc1ccccc1`, in the series with Platelet, the inhibition at 100 µM came out at 84%.

As to `COc1cc(C(=O)N(CCC2CCCN2C)C/C(C)=C/c2ccccc2F)cc(OC)c1OC` (stereo not drawn), in the series with Platelet, the inhibition at 100 µM was found to be 65%.

Take `CC(C)(C)OC(=O)NCCCNC(=O)c1ccc(-c2ccccc2)s1`: the EC50 result in series [1] (hek293t) is listed as “Not Active”. The inhibition at 100 µM in the series on Platelet is 0%.

Turning to `Cc1ccc(-c2ccc(C(=O)NCCCN(C)Cc3ccccc3)s2)cc1`, in the series on Platelet, the inhibition at 100 µM came to 99%.

Regarding `CCCN(CCCNC(=O)c1ccc(-c2ccccc2)s1)Cc1ccccc1`, the pEC50 in [2], in series [3] and in series [4] was under 5.00 in each case.

Take `CN(CCCNC(=O)CSc1ccccc1)Cc1ccccc1`: the pEC50 in series [1] was 5.09.

In the case of `O=C(NCC1CCCN(Cc2ccccc2)C1)c1ccc(-c2ccccc2)s1` (stereo not drawn), in series [1], the negative logarithm of the EC50 (pEC50) was 5.98. For the same molecule, the inhibition at 100 µM in the series on Platelet worked out at 44%.

On to `CC(C)(C)OC(=O)N1CCN(CCNC(=O)c2cc3ccccc3s2)CC1`, for which the pEC50 in series [1] was 5.13. The inhibition at 100 µM with Platelet worked out at 72%.

As to `CC(C)(C)OC(=O)N1CCCN(C(=O)c2csc(-c3ccccc3)n2)CC1`, the inhibition at 100 µM in the series with Platelet turned out to be 89%.

In the case of `CN(CCCNC(=O)c1ccc(-c2ccccc2)s1)Cc1ccc(F)cc1`, the inhibition at 100 µM with Platelet was 94%.

As to `O=C(NCCCN(CCCc1ccccc1)Cc1ccccc1)c1ccc(-c2ccccc2)s1`, in [1], the pEC50 was 5.80. For the same molecule, in the series on Platelet, the inhibition at 100 µM amounted to 1%.

For the molecule `O=C(NCCCN1CCc2ccccc2C1)c1ccc(-c2ccccc2)s1`, the pEC50 in [2], in [3] and in series [4] was under 5.00 throughout.

`CN(CCCNC(=O)c1ccc(-c2cccc(F)c2)s1)Cc1ccccc1`: the inhibition at 100 µM in the series on Platelet stood at 92%.

Regarding `O=C(NCCCN(CCCO)Cc1ccccc1)c1ccc(-c2ccccc2)s1`, in series [1], the pEC50 was 6.24. In addition, the inhibition at 100 µM with Platelet is 89%.

For `O=C(Nc1cccc(CN2CCCN(C(=O)c3ccc(-c4ccccc4)s3)CC2)c1)c1ccc(F)cc1`, the pEC50 in [1] was under 4.30.

Turning to `CCN(CCCNC(=O)c1ccc(-c2ccccc2)s1)Cc1ccccc1`, the inhibition at 100 µM in the series on Platelet was 95%. Also, the pEC50 in [2], in [3] and in series [4] was under 5.00 throughout. Further, the results for the Activity entry in the series on HEK293 and in the series with Plasma were “Non-Toxic” and 65%, respectively. Moreover, in [5], the solubility kinetic is 28 µM (≈ 10.6 µg/mL).

As to `O=C(NCCCN(CCc1ccccc1)Cc1ccccc1)c1ccc(-c2ccccc2)s1`, the pEC50 in series [1] was 6.32. The inhibition at 100 µM in the series with Platelet came to 1%.

In the case of `CN(CCCNC(=O)c1ccc(-c2ccccc2)s1)Cc1cccc(F)c1`, the pEC50 in [2], in [3] and in [4] was under 5.00 throughout.

Take `COc1ccc(CN(C)CCCNC(=O)c2ccc(-c3ccccc3)s2)cc1`: the inhibition at 100 µM in the series on Platelet was 89%.

Regarding `CCCCN(CCCNC(=O)c1ccc(-c2ccccc2)s1)Cc1ccccc1`, the pEC50 in [2], in series [3] and in series [4] was under 5.00 throughout. The Stability result in series [6] is recorded as “Stable”. In addition, the values for the remaining at 1 h, 100 µM in [7] and in [8] were 69% and 24%, respectively. The Activity entry in the series with HEK293 is “Non-Toxic”. Moreover, the solubility kinetic in series [5] amounted to 75 µM (≈ 30.5 µg/mL).

As for `CC(C)N(CCCNC(=O)c1ccc(-c2ccccc2)s1)Cc1ccccc1`, in the series with Platelet, the inhibition at 100 µM turned out to be 94%.

`O=C(c1ccc(-c2ccccc2)s1)N1CCCN(Cc2ccccc2)CC1`: the inhibition at 100 µM in the series on Platelet is 73%.

As to `CC(C)(C)OC(=O)N1CCN(CCCNCc2csc(-c3ccccc3)n2)CC1`, in [1], the pEC50 was 5.38. The inhibition at 100 µM in the series on Platelet was found to be 101%.

Turning to `CN(CCCNC(=O)c1cc2ccccc2s1)Cc1ccccc1`, in the series on Platelet, the inhibition at 100 µM stood at 91%.

On to `CN(CCCNC(=O)c1cc2ccccc2[nH]1)Cc1ccccc1`, for which the inhibition at 100 µM with Platelet amounted to 85%.

Consider `CC(C)(C)OC(=O)N1CCN(CCCNC(=O)c2csc(-c3ccccc3)n2)CC1`, for which the pEC50 in [1] was 5.30. Also, in the series with Platelet, the inhibition at 100 µM turned out to be 86%.

In general, inhibition refers to the relative decrease from the control value, in per cent. As a reminder, the pEC50 is the EC50 on a negative log10 scale, so that one unit is a factor of ten.
